How the values were obtained:
recombinant BRD4 BD1 = molecular target: T1, recombinant BRD4 BD1 (Homo sapiens, UniProt O60885); assay: Competitive fluorescence-polarization (FP) binding assay, BRD4 BD1; settings: competitive FP assay; protein 10 nM, probe […]; read-out: IC50 (nM) BRD4 BD1; further: probe 1.5 nM
T1 construct: for recombinant BRD4 BD1 and BRD4 BD2 proteins
Procedure, shortened: (§1)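 FP competition with FAM-labelled probe (ZBA248 or BRD-1F) against preincubated protein/probe complex; BD1 at 10 nM and BD2 at 6 nM final, in 100 mM potassium phosphate pH 6.5, 0.01% Triton X-100. 30 min, room temperature. IC50 by nonlinear regression; Ki also derived, using probe Kd from protein saturation.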

recombinant BRD4 BD2 = molecular target: T2, recombinant BRD4 BD2 (Homo sapiens, UniProt O60885); assay: Competitive fluorescence-polarization (FP) binding assay, BRD4 BD2; settings: competitive FP assay; protein 6 nM, probe […]; read-out: IC50 (nM) BRD4 BD2; further: probe 1.5 nM
T2 construct: for recombinant BRD4 BD1 and BRD4 BD2 proteins
Procedure, shortened: as §1

MOLM-13 = assay: Cell growth inhibition, MOLM-13 leukemia cells (CellTiter-Glo); assay type: cell-based; settings: Homo sapiens, MOLM-13, 96 h; 4 days; read-out: IC50 (nM) MOLM-13 Cell Line (CellTiter-Glo assay)
Procedure, shortened: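 MOLM-13 leukemia cells treated with compounds; viability read by CellTiter-Glo luminescence after 10-20 min reagent incubation at room temperature. IC50 derived from luminescent signal.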

MDA-MB-436 = assay: Cell growth inhibition, MDA-MB-436 breast cancer cells (WST-8); assay type: cell-based; settings: Homo sapiens, MDA-MB-436, 96 h; 4 days; read-out: IC50 (nM) MDA-MB-436 Cell Line (WST assay)
Procedure, shortened: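 IC50 was computed from WST-8-based cell counting in MDA-MB-436 cells, with absorbance read at 450 nm.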

COc1cc2c(cc1-c1c(C)noc1C)[nH]c1nc(C)nc(Nc3cncc(C)c3)c12 [Cpd. No. 108, 7-(3,5-dimethylisoxazol-4-yl)-6-methoxy-2-methyl-N-(5-methylpyridin-3-yl)-9H-pyrimido[4,5-b]indol-4-amine]
IC50 (recombinant BRD4 BD1): 58 nM
IC50 (recombinant BRD4 BD2): 21 nM
IC50 (MOLM-13): 19 nM
IC50 (MDA-MB-436): 181 nM

COc1cc2c(cc1-c1c(C)noc1C)[nH]c1nc(C)nc(Nc3c(C)cnn3C3CCC3)c12 [Cpd. No. 198, N-(1-cyclobutyl-4-methyl-1H-pyrazol-5-yl)-7-(3,5-dimethylisoxazol-4-yl)-6-methoxy-2-methyl-9H-pyrimido[4,5-b]indol-4-amine]
IC50 (recombinant BRD4 BD1): 6.9 nM
IC50 (recombinant BRD4 BD2): 3.6 nM
IC50 (MOLM-13): 25.7 nM
IC50 (MDA-MB-436): 58.7 nM

COc1cc2c(cc1-c1c(C)noc1C)[nH]c1nc(C)nc(Nc3cnn4c3CCC4)c12 [Cpd. No. 134, N-(5,6-Dihydro-4H-pyrrolo[1,2-b]pyrazol-3-yl)-7-(3,5-dimethylisoxazol-4-yl)-6-methoxy-2-methyl-9H-pyrimido[4,5-b]indol-4-amine]
IC50 (recombinant BRD4 BD1): 40.2 nM
IC50 (recombinant BRD4 BD2): 30.5 nM
IC50 (MOLM-13): 32 nM
IC50 (MDA-MB-436): 128 nM

COc1cc2c(cc1-c1c(C)noc1C)[nH]c1ncnc(Nc3nn(C)c4ccccc34)c12 [Cpd. No. 17, 7-(3,5-Dimethylisoxazol-4-yl)-6-methoxy-N-(1-methyl-1H-indazol-3-yl)-9H-pyrimido[4,5-b]indol-4-amine]
IC50 (recombinant BRD4 BD1): 16.7 nM
IC50 (recombinant BRD4 BD2): 82.3 nM
IC50 (MOLM-13): 28.4 nM
IC50 (MDA-MB-436): 51 nM

COc1cc2c(cc1-c1c(C)noc1C)[nH]c1nc(C)nc(Nc3c[nH]c4ncccc34)c12 [Cpd. No. 102, 7-(3,5-dimethylisoxazol-4-yl)-6-methoxy-2-methyl-N-(1H-pyrrolo[2,3-b]pyridin-3-yl)-9H-pyrimido[4,5-b]indol-4-amine]
IC50 (recombinant BRD4 BD1): 18 nM
IC50 (recombinant BRD4 BD2): 17 nM
IC50 (MOLM-13): 510 nM
IC50 (MDA-MB-436): 363 nM

COc1cc2c(cc1-c1c(C)noc1C)[nH]c1nc(C)nc(Nc3cc(C)nn3C3CCCC3)c12 [Cpd. No. 118, N-(1-Cyclopentyl-3-methyl-1H-pyrazol-5-yl)-7-(3,5-dimethylisoxazol-4-yl)-6-methoxy-2-methyl-9H-pyrimido[4,5-b]indol-4-amine]
IC50 (recombinant BRD4 BD1): 4.2 nM
IC50 (recombinant BRD4 BD2): 3.4 nM
IC50 (MOLM-13): 17.7 nM
IC50 (MDA-MB-436): 25 nM

COc1cc2c(cc1-c1c(C)noc1C)[nH]c1nc(C)nc(Nc3cc(C(C)C)nn3C)c12 [Cpd. No. 65, 7-(3,5-Dimethylisoxazol-4-yl)-N-(3-isopropyl-1-methyl-1H-pyrazol-5-yl)-6-methoxy-2-methyl-9H-pyrimido[4,5-b]indol-4-amine]
IC50 (recombinant BRD4 BD1): 6.1 nM
IC50 (recombinant BRD4 BD2): 4.1 nM
IC50 (MOLM-13): 11.7 nM
IC50 (MDA-MB-436): 26 nM

COc1cc2c(cc1-c1c(C)noc1C)[nH]c1nc(C)nc(Nc3ncnn3C(C)C)c12 [Cpd. No. 29, 7-(3,5-dimethylisoxazol-4-yl)-N-(1-isopropyl-1H-1,2,4-triazol-5-yl)-6-methoxy-2-methyl-9H-pyrimido[4,5-b]indol-4-amine]
IC50 (recombinant BRD4 BD1): > 1000 nM
IC50 (recombinant BRD4 BD2): > 1000 nM
IC50 (MOLM-13): 82.1 nM
IC50 (MDA-MB-436): 1110 nM

COc1cc2c(cc1-c1c(C)noc1C)[nH]c1nc(C)nc(Nc3c4c(nn3C)CCC4)c12 [Cpd. No. 122, 7-(3,5-Dimethylisoxazol-4-yl)-6-methoxy-2-methyl-N-(2-methyl-2,4,5,6-tetrahydrocyclopenta-[c]pyrazol-3-yl)-9H-pyrimido[4,5-b]indol-4-amine]
IC50 (recombinant BRD4 BD1): 4.3 nM
IC50 (recombinant BRD4 BD2): 2.3 nM
IC50 (MOLM-13): 6 nM
IC50 (MDA-MB-436): 7.8 nM

COc1cc2c(cc1-c1c(C)noc1C)[nH]c1nc(C)nc(Nc3cccc(C(F)(F)F)c3)c12 [Cpd. No. 214, 7-(3,5-dimethylisoxazol-4-yl)-6-methoxy-2-methyl-N-(3-(trifluoromethyl)phenyl)-9H-pyrimido[4,5-b]indol-4-amine]
IC50 (recombinant BRD4 BD1): 855 nM
IC50 (recombinant BRD4 BD2): 348 nM
IC50 (MOLM-13): 208 nM
IC50 (MDA-MB-436): 249 nM

COc1cc2c(cc1-c1c(C)noc1C)[nH]c1nc(C)nc(Nc3cccc4c3CCO4)c12 [Cpd. No. 234, N-(2,3-dihydrobenzofuran-4-yl)-7-(3,5-dimethylisoxazol-4-yl)-6-methoxy-2-methyl-9H-pyrimido[4,5-b]indol-4-amine]
IC50 (recombinant BRD4 BD1): 25 nM
IC50 (recombinant BRD4 BD2): 25 nM
IC50 (MOLM-13): 34 nM
IC50 (MDA-MB-436): 139 nM

COc1cc2c(cc1-c1c(C)noc1C)[nH]c1nc(C)nc(NC3CCCC3)c12 [Cpd. No. 113, N-cyclopentyl-7-(3,5-dimethylisoxazol-4-yl)-6-methoxy-2-methyl-9H-pyrimido[4,5-b]indol-4-amine]
IC50 (recombinant BRD4 BD1): 582 nM
IC50 (recombinant BRD4 BD2): 564 nM
IC50 (MOLM-13): 853 nM
IC50 (MDA-MB-436): 1100 nM

CCn1nccc1Nc1nc(C)nc2[nH]c3cc(-c4c(C)noc4C)c(OC)cc3c12 [Cpd. No. 173, 7-(3,5-dimethylisoxazol-4-yl)-N-(1-ethyl-1H-pyrazol-5-yl)-6-methoxy-2-methyl-9H-pyrimido[4,5-b]indol-4-amine]
IC50 (recombinant BRD4 BD1): 31.7 nM
IC50 (recombinant BRD4 BD2): 25.1 nM
IC50 (MOLM-13): 121 nM
IC50 (MDA-MB-436): 198 nM

COc1cc2c(cc1-c1c(C)noc1C)[nH]c1nc(C)nc(Nc3c(C)c(C)nn3C3CC3)c12 [Cpd. No. 188, N-(1-cyclopropyl-3,4-dimethyl-1H-pyrazol-5-yl)-7-(3,5-dimethylisoxazol-4-yl)-6-methoxy-2-methyl-9H-pyrimido[4,5-b]indol-4-amine]
IC50 (recombinant BRD4 BD1): 2.1 nM
IC50 (recombinant BRD4 BD2): 3.7 nM
IC50 (MOLM-13): 3.2 nM
IC50 (MDA-MB-436): 12.8 nM

COc1cc2c(cc1-c1c(C)noc1C)[nH]c1nc(C)nc(Nc3cc(C(C)(C)C)nn3C)c12 [Cpd. No. 120, N-(3-tert-Butyl-1-methyl-1H-pyrazol-5-yl)-7-(3,5-dimethylisoxazol-4-yl)-6-methoxy-2-methyl-9H-pyrimido[4,5-b]indol-4-amine]
IC50 (recombinant BRD4 BD1): 9.6 nM
IC50 (recombinant BRD4 BD2): 5.8 nM
IC50 (MOLM-13): 23 nM
IC50 (MDA-MB-436): 23.5 nM

COc1cc2c(cc1-c1c(C)noc1C)[nH]c1nc(C)nc(Nc3cn(C)nc3C(C)(C)O)c12 [compound 269, 2-(4-(7-(3,5-dimethylisoxazol-4-yl)-6-methoxy-2-methyl-9H-pyrimido[4,5-b]indol-4-ylamino)-1-methyl-1H-pyrazol-3-yl)propan-2-ol]
IC50 (recombinant BRD4 BD1): 21.9 nM
IC50 (recombinant BRD4 BD2): 35.1 nM
IC50 (MOLM-13): 97.4 nM
IC50 (MDA-MB-436): 154 nM

COc1cc2c(cc1-c1c(C)noc1C)[nH]c1nc(C)nc(Nc3cc(C)ccn3)c12 [Cpd. No. 110, 7-(3,5-dimethylisoxazol-4-yl)-6-methoxy-2-methyl-N-(4-methylpyridin-2-yl)-9H-pyrimido[4,5-b]indol-4-amine]
IC50 (recombinant BRD4 BD1): 73 nM
IC50 (recombinant BRD4 BD2): 33 nM
IC50 (MOLM-13): 16 nM
IC50 (MDA-MB-436): 354 nM

COc1cc2c(cc1-c1c(C)noc1C)[nH]c1nc(C)nc(Nc3c(C)nn(C(C)C)c3C)c12 [Cpd. No. 36, 7-(3,5-dimethylisoxazol-4-yl)-N-(1-isopropyl-3,5-dimethyl-1H-pyrazol-4-yl)-6-methoxy-2-methyl-9H-pyrimido[4,5-b]indol-4-amine]
IC50 (recombinant BRD4 BD1): 68.5 nM
IC50 (recombinant BRD4 BD2): 92.6 nM
IC50 (MOLM-13): 103 nM
IC50 (MDA-MB-436): 236 nM

COc1cc2c(cc1-c1c(C)noc1C)[nH]c1nc(C)nc(Nc3[nH]ncc3C(C)C)c12 [Cpd. No. 32, 7-(3,5-dimethylisoxazol-4-yl)-N-(4-isopropyl-1H-pyrazol-5-yl)-6-methoxy-2-methyl-9H-pyrimido[4,5-b]indol-4-amine]
IC50 (recombinant BRD4 BD1): 26.5 nM
IC50 (recombinant BRD4 BD2): 39.4 nM
IC50 (MOLM-13): 40.9 nM
IC50 (MDA-MB-436): 155 nM

COc1cc2c(cc1-c1c(C)noc1C)[nH]c1nc(C)nc(Nc3c(C4CC4)nn(C)c3C3CC3)c12 [Cpd. No. 239, N-(3,5-dicyclopropyl-1-methyl-1H-pyrazol-4-yl)-7-(3,5-dimethylisoxazol-4-yl)-6-methoxy-2-methyl-9H-pyrimido[4,5-b]indol-4-amine]
IC50 (recombinant BRD4 BD1): 19 nM
IC50 (recombinant BRD4 BD2): 28 nM
IC50 (MOLM-13): 22 nM
IC50 (MDA-MB-436): 43 nM

COc1cc2c(cc1-c1c(C)noc1C)[nH]c1nc(C)nc(Nc3cccc4c3ccn4C)c12 [Cpd. No. 236, 7-(3,5-dimethylisoxazol-4-yl)-6-methoxy-2-methyl-N-(1-methyl-1H-indol-4-yl)-9H-pyrimido[4,5-b]indol-4-amine]
IC50 (recombinant BRD4 BD1): 14 nM
IC50 (recombinant BRD4 BD2): 59 nM
IC50 (MOLM-13): 49 nM
IC50 (MDA-MB-436): 117 nM

COc1cc2c(cc1-c1c(C)noc1C)[nH]c1nc(C)nc(Nc3cn(C)nc3C)c12 [Cpd. No. 34, N-(1,3-dimethyl-1H-pyrazol-4-yl)-7-(3,5-dimethylisoxazol-4-yl)-6-methoxy-2-methyl-9H-pyrimido[4,5-b]indol-4-amine]
IC50 (recombinant BRD4 BD1): 30.2 nM
IC50 (recombinant BRD4 BD2): 28.7 nM
IC50 (MOLM-13): 32.7 nM
IC50 (MDA-MB-436): 97.6 nM

COc1cc2c(cc1-c1c(C)noc1C)[nH]c1nc(C)nc(Nc3c(C)nn(C)c3C)c12 [Cpd. No. 35, 7-(3,5-dimethylisoxazol-4-yl)-6-methoxy-2-methyl-N-(1,3,5-trimethyl-1H-pyrazol-4-yl)-9H-pyrimido[4,5-b]indol-4-amine]
IC50 (recombinant BRD4 BD1): 20.4 nM
IC50 (recombinant BRD4 BD2): 42.9 nM
IC50 (MOLM-13): 38.9 nM
IC50 (MDA-MB-436): 88.9 nM

COc1cc2c(cc1-c1c(C)noc1C)[nH]c1nc(C)nc(Nc3cnn(C)c3C)c12 [Cpd. No. 170, N-(1,5-dimethyl-1H-pyrazol-4-yl)-7-(3,5-dimethylisoxazol-4-yl)-6-methoxy-2-methyl-9H-pyrimido[4,5-b]indol-4-amine]
IC50 (recombinant BRD4 BD1): 44.9 nM
IC50 (recombinant BRD4 BD2): 56.5 nM
IC50 (MOLM-13): 131 nM
IC50 (MDA-MB-436): 222 nM

From patent US9580430B2, “9H-pyrimido[4,5-B]indoles and related analogs as BET bromodomain inhibitors” (THE REGENTS OF THE UNIVERSITY OF MICHIGAN, priority 2014, dated 2017)
